{
  "source": "patent US6444640B1",
  "about": "“Compositions of trail and DNA damaging drugs and uses thereof” (Ludwig Institute for Cancer Research, priority 1999, dated 2002)",
  "key": {"U87MG cells [1]": {"system": "U87MG cells", "test": "Apoptosis of U87MG cells (TUNEL, flow cytometry) with caspase inhibitor", "type": "cell-based, human", "description": "In these experiments, the mechanism by which the cell death caused by combination of TRAIL and DNA damaging agents was studied further. U87MG cells were plated overnight, and then treated with either TRAIL alone (0.1 ug/ml), CDDP alone (4 ug/ml) VP16 alone (16 ug/ml) TRAIL and CDDP, at the recited doses, or TRAIL plus VP16, at the recited doses. The cells were treated for 44 hours, collected, fixed in 2% formaldehyde, and permeabilized in 0.05% Tween-20 in bovine serum albumin solution.\nThe cells were then incubated with TUNEL (terminal deoxynucleotidyl transferase mediated nick end labeling) solution, at 37° C. for 1 hour. Those cells which stained positively with fluorescein were analyzed via flow cytometry. The morphology of the dead cells was typical of apoptosis.\nTRAIL is known to induce apoptosis through activation of effector caspases. See, e.g., Wu, et al., Nature Genet 17: 141-143 (1997); Wiley et al., Immunity 3: 673-682 (1995); Pitti, et al., J. Biol Chem 271: 12687-12690 (1996); Pan, et al., Science 277: 815-818 (1997); Sheridan, et al., Science 277: 818-821 (1997); Walczak, et al., EMBO J. 16: 5386-5397 (1997)."}, "[2]": {"system": "poly (ADP-ribase) polymerase", "test": "Western blot for PARP cleavage (activation of effector caspases)", "type": "cell-based, human", "conditions": "24 hours after treatment", "description": "The direct assessment of activation of effector caspases was examined by assaying for cleavage of poly (ADP-ribase) polymerase, or “PARP”, after treatment with combinations of a DNA damaging agent (CDDP or VP16), TRAIL, DR5-Fc or Fc, and the caspase inhibitor, Z-Asp-CH2-DCB. This was determined via Western blotting, where 20 ug of clarified protein lysate was loaded onto SDS gels 24 hours after treatment, electrophoresed, transferred to membranes, and then probed with monoclonal antibodies against PARP. Full length PARP has a molecular weight of about 116 kilodalton and, when cleaved, one fragment is 85 kilodaltons."}, "U87MG cells [3]": {"system": "U87MG cells", "test": "MTT survival assay", "conditions": "for cell viability, single agent: TRAIL 0.1 ug/ml, CDDP 4 ug/ml, VP16 16 ug/ml, 24 hours", "quoted_text": "(§1) Experiments were then carried out to determine if combining TRAIL with the damaging agents would enhance cytotoxicity. The method employed to determine if combining TRAIL with the damaging agents would enhance cytotoxicity was the 3-(4,5-dimethylthiazol-2-yl)-2,5-diphenyl tetrazolum bromide (“MTT”) survival assay, described by Mosmann, et al., J. Immunol. […] Cells (U87MG) were plated, at 1×10^4 cells/well in 96 well microtiter plates overnight.\n(§2) The cytotoxic effect of TRAIL, in combination with one of the DNA damaging agents discussed supra, i.e., CDDP, VP16, as BCNU was tested, by either adding TRAIL alone, the drug alone, or TRAIL plus the drug, in a two component combination, with DR5-Fc, referred to supra, or with Fc. The dosages were as provided supra."}, "DR5": {"system": "DR5", "test": "Northern blot of DR5 expression in human glioma cell lines after drug treatment", "type": "cell-based", "conditions": "for basal level expression of ~4.4Kb DR5 transcripts after contact with drug: U87MG, A1207, U178 cells, Northern blot", "description": "This first set of experiments was designed to determine whether chemotherapeutic agents which are used in treating gliomas could upregulate expression of DR5 in human glioma cell lines. This was apreliminary step to determine if wild type p53, which is found in de novo glioblastomas, could be exploited.\nThe human glioblastoma cell lines U87MG, A1207, and U178 were used. The first two of these cell lines are homozygous for wild type p53, while U178 cells express a wild type allele, and an allele with a mutation at codon 271. Samples of cells were treated with one of cis-diamminedichloroplatinum (II) (“CDDP” hereafter), ectoposide (“VP16” hereafter), or chloroethyl)-BCNU. The U87MG and U178 cells received either 0, 1, or 4 ug/ml doses of CDDP; 0, 8, or 16 ug/ml doses of VP16, or 0, 100, or 200 μM doses of BCNU. The A1207 cells received 0, 5, or 20 ug/ml of CDDP, 0, 8 or 16 ug/ml of VP16, or 0, 100, or 200 μM doses of BCNU.\nThe cells were treated with the drug at an indicated dosage for 16 hours, after which they were harvested, and total RNA was extracted, following standard methods. Then, 15 ug samples were size fractionated on a 1% agarose formaldehyde gel, and transferred to a nylon membrane. These samples were then probed with a human DR5 cDNA probe, 583 base pairs long. This had beenz prepared via RT-PCR of total RNA of U87MG cells using:\nThe hybridization was carried out at 68° C. for 2 hours, followed by washing in 0.5×SSC and 0.1% SDS at 58° C. for 15 minutes. The membranes were then exposed to film at −80° C. with an intensifying screen. In order to confirm that RNA had in fact been loaded, 28SrRNA was stained with methylene blue."}, "[4]": {"system": "astrocytes from p53 knockout mice", "conditions": "in vitro; cited from earlier work"}, "U87MG cells [5]": {"system": "U87MG cells", "quoted_text": "as §1, §2"}, "U87MG cells [6]": {"system": "U87MG cells", "test": "Subcutaneous U87MG tumors in nude mice, Example 7", "type": "in vivo", "conditions": "single agent", "description": "To test this, U87MG cells (2×10^6) were suspended in 0.1 ml PBS, and then injected subcutaneously into the right flank of 4-5 week old female nude mice, of BALB/C background. Tumors were permitted to become established, and then grow for 20 days, reaching an approximate innate volume of 150 mm^3. Then, either CDDP (3 mg/kg), or sterile normal saline was administered intraperitoneally on days 20,21,22,30,31, and 32. Mice also received either fusion protein FLAG-TRAIL (200 ug), or a mock control. The FLAG-TRAIL fusion protein described by Degli-Esposti, et al., J. Exp. Med 186: 1165-1170 (1997), incorporated by reference, was prepared via standard recombinant methods. Mock controls were prepared by carrying out the same protocol used to produce the FLAG-TRAIL, but without a vector which encoded the fusion protein. Cell lysate was used as the control. The FLAG-TRAIL or control was administered via intraveneous and intraperitoneal injections 16 hours and 24 hours following CDDP treatment, i.e., on days 21,22,23, 31,32 and 33. Growth of the tumors was measured at 2 day intervals, in accordance with Huang, et al., J. Biol Chem 272: […] (1997)."}},
  "note": "Where two headings read alike, the source gives them in different places.",
  "data": [
    {"molecule": "O=C(O)C[C@H](NC(=O)OCc1ccccc1)C(=O)COC(=O)c1c(Cl)cccc1Cl", "note": "[Z-Asp-CH2-DCB]", "values": [
      {"measurement": "apoptosis on treatment with TRAIL, one of CDDP or VP16, and the caspase inhibitor", "setting": "U87MG cells [1]", "value": "did not induce apoptosis"},
      {"measurement": "effect on PARP cleavage elicited by TRAIL and CDDP or VP16", "setting": "[2]", "value": "inhibited"},
      {"measurement": "effect on synergistic cytotoxicity of TRAIL plus DNA damaging agent", "setting": "U87MG cells [3]; added to TRAIL plus CDDP or VP16", "value": "at levels obtained for single drugs"}
    ]},
    {"molecule": "O=NN(CCCl)C(=O)NCCCl", "note": "[BCNU, 1,3 bis (2-chloroethyl)-1-nitrosourea]", "values": [
      {"measurement": "basal level expression of ~4.4Kb DR5 transcripts after contact with drug", "setting": "DR5", "value": "lesser effect"},
      {"measurement": "sensitivity of p53 knockout astrocytes compared with wild type astrocytes", "setting": "[4]", "value": "more sensitive"}
    ]},
    {"molecule": "DR5-Fc: a soluble fusion protein that competes for TRAIL", "values": [
      {"measurement": "effect on PARP cleavage elicited by TRAIL and CDDP or VP16", "setting": "[2]", "value": "inhibited"},
      {"measurement": "effect on synergistic cytotoxicity of TRAIL plus DNA damaging agent", "setting": "U87MG cells [5]", "value": "abolished"}
    ]},
    {"molecule": "N.N.[Cl][Pt][Cl]", "note": "[CDDP, cis-diamminedichloroplatinum (II)]", "values": [
      {"measurement": "basal level expression of ~4.4Kb DR5 transcripts after contact with drug", "setting": "DR5", "value": "increased significantly"},
      {"measurement": "time of contact needed for induction of DR5", "setting": "DR5; glioblastoma cell lines", "value": 16, "unit": "h"},
      {"measurement": "PARP cleavage product (85 kilodaltons)", "setting": "[2]", "value": "not"},
      {"measurement": "tumor growth compared with combined drugs", "setting": "U87MG cells [6]", "value": "grew significantly faster"},
      {"measurement": "cell viability, single agent", "setting": "U87MG cells [3]", "value": "sublethal"}
    ]},
    {"molecule": "COc1cc([C@@H]2c3cc4c(cc3[C@@H](O[C@@H]3O[C@@H]5CO[C@@H](C)O[C@H]5[C@H](O)[C@H]3O)[C@H]3COC(=O)[C@H]23)OCO4)cc(OC)c1O", "note": "[VP16, ectoposide]", "values": [
      {"measurement": "basal level expression of ~4.4Kb DR5 transcripts after contact with drug", "setting": "DR5", "value": "increased significantly"},
      {"measurement": "PARP cleavage product (85 kilodaltons)", "setting": "[2]", "value": "not"},
      {"measurement": "cell viability, single agent", "setting": "U87MG cells [3]", "value": "sublethal"}
    ]},
    {"molecule": "extracellular domain of DR4 expressed as a fusion protein with Fc: extracellular domain of DR4 expressed as a fusion protein with Fc", "values": [
      {"measurement": "effect on synergistic cytotoxicity of TRAIL plus DNA damaging agent", "setting": "U87MG cells [5]", "value": "same elimination of synergistic cytotoxicity"}
    ]},
    {"molecule": "TRAIL: tumor necrosis factor related apoptosis inducing ligand; given in vivo as fusion protein FLAG-TRAIL (protein) TSEETISTVQEKQQNISPLVRERGPQRVAAHITGTRGRSNTLSSPNSKNEKALGRKINSWESSRSGHSFLSNLHLRNGELVIHEKGFYYIYSQTYFRFQEEIKENTKNDKQMVQYIYKYTSYPDPILLMKSARNSCWSKDAEYGLYSIYQGGIFELKENDRIFVSVTNEHLIDMDHEASFFGAFLVG", "values": [
      {"measurement": "PARP cleavage product (85 kilodaltons)", "setting": "[2]", "value": "not"},
      {"measurement": "tumor growth compared with combined drugs", "setting": "U87MG cells [6]", "value": "grew significantly faster"},
      {"measurement": "cell viability, single agent", "setting": "U87MG cells [3]", "value": "no effect on cell viability"},
      {"measurement": "reduction of amount of TRAIL necessary for efficacy in combination versus alone", "setting": "U87MG cells [3]; in combination with DNA damaging agent", "value": "about 100 fold"}
    ]}
  ]
}
